# From patent US12180226B2, “Spirotricycle RIPK1 inhibitors and methods of uses thereof” (Merck Sharp & Dohme LLC, priority 2021, dated 2024)
# Where a name gives a salt, the structure may show the parent alone.
# Biological target: RIPK1 (recombinant GST-RIPK1 kinase domain, residues 1-327) (Homo sapiens (Human), UniProt Q13546)
# Test: RIPK1-ADP-Glo Enzymatic Assay
# Assay type: biochemical
# Conditions: ADP-Glo; 25 nM GST-RIPK1, 300 μM ATP; assay lower limit ~25 nM; read-out: RIPK1 V0 Ec50
# Procedure: RIPK1-ADP-Glo Enzymatic Assay
# The enzymatic activity of RIPK1 is measured using an assay derived from ADP-Glo kit (TMPromega), which provides a luminescent-based ADP detection system. Specifically, the ADP generated by RIPK1 kinase is proportionally detected as luminescent signals in a homogenous fashion. In this context, the assessment of the inhibitory effect of small molecules (EC50) is measured by the effectiveness of the compounds to inhibit the ATP to ADP conversion by RIPK1.
# In this assay, the potency (EC50) of each compound was determined from a ten-point (1:3 serial dilution; top compound concentration of 100000 nM) titration curve using the following outlined procedure. The assay bottom or lower limit of confidence is ˜25 nM. To each well of a white ProxiPlus 384 well-plate, 30 nL of compound (1% DMSO in final assay volume of 3 μL) was dispensed, followed by the addition of 2 μL of 1×assay buffer (25 mM Hepes 7.3, 20 mM MgCl2, 50 mM NaCl, 1 mM DTT, 0.005% Tween20, and 0.02% BSA) containing 37.5 nM of GST-RIPK1 (recombinant GST-RIPK1 kinase domain (residues 1-327) enzyme produced from baculovirus-transfected Sf21 cells: MW=62 kDa). Plates were placed in an ambient temperature humidified chamber for a 30-minute pre-incubation with compound. Subsequently, each reaction was initiated by the addition of 1 μL 1×assay buffer containing 900 μM ATP and […] dephosphorylated-MBP substrate. The final reaction in each well of 3 μL consists of 25 nM of GST-RIPK1, 300 μM ATP, and 3 μM dephosphorylated-MBP. Kinase reactions were allowed to proceed for 150 minutes prior to adding ADP-Glo reagents per Promega's outlined kit protocol. Dose-response curves were generated by plotting percent effect (% product conversion; Y-axis) vs. Log10 compound concentrations (X-axis). EC50 values were calculated using a non-linear regression, four-parameters sigmoidal dose-response model.
# RIPK1 (recombinant GST-RIPK1 kinase domain, residues 1-327), sequence (Q13546 1-327): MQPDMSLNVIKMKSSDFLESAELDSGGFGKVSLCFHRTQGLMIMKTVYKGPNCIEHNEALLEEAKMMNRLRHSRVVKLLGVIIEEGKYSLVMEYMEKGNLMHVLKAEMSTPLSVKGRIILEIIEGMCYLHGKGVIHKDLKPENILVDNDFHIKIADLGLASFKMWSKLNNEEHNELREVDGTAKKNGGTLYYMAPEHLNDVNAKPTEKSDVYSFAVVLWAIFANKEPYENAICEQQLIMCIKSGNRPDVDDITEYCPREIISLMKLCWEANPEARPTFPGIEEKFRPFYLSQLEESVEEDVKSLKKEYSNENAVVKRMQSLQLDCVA
row,SMILES,EC50
1,"O=C1N2[C@@H](CC[C@H]2c2ccccc2)OC12CCN(c1ccc(C(F)F)c3ncnn13)CC2 [Example 4.269, (5′S,7a′R)-1-[8-(difluoromethyl)[1,2,4]triazolo[1,5-a]pyridin-5-yl]-5′-phenyltetrahydro-3′H-spiro[piperidine-4,2′-pyrrolo[2,1-b] [1,3]oxazol]-3′-one]",< 25 nM
2,"O=C(c1ccccc1)N1CCC2(CC1)O[C@@H]1CC[C@@H](c3cncc(F)c3)N1C2=O [Example 1.4, (5′S,7a′R)-1-(benzenecarbonyl)-5′-(5-fluoropyridin-3-yl)tetrahydro-3′H-spiro[piperidine-4,2′-pyrrolo[2,1-b] [1,3]oxazol]-3′-one]",121 nM
3,"N#Cc1cc(F)cc([C@@H]2CC[C@H]3OC4(CCN(c5ccnc6c(F)cnn56)CC4)C(=O)N32)c1 [Example 4.121, 3-fluoro-5-[(5′S,7a′R)-1-(3-fluoropyrazolo[1,5-a]pyrimidin-7-yl)-3′-oxotetrahydro-3′H-spiro[piperidine-4,2′-pyrrolo[2,1-b] [1,3]oxazol]-5′-yl]benzonitrile]",< 25 nM
4,"N#Cc1cnc(N2CCC3(CC2)O[C@@H]2CC[C@@H](c4cc(F)cc(F)c4)N2C3=O)nc1 [Example 4.76, 2-[(5′S,7a′R)-5′-(3,5-difluorophenyl)-3′-oxotetrahydro-1H,3′H-spiro[piperidine-4,2′-pyrrolo[2,1-b] [1,3]oxazol]-1-yl]pyrimidine-5-carbonitrile]",38.2 nM
5,"Cc1cc(F)c(C(=O)N2CCC3(CC2)O[C@@H]2CC[C@@H](c4cc(F)cc(F)c4)N2C3=O)cc1F [Example 5.6, (5′S,7a′R)-1-(2,5-difluoro-4-methylbenzene-1-carbonyl)-5′-(3,5-difluoro-phenyl)tetrahydro-3′H-spiro[piperidine-4,2′-pyrrolo[2,1-b][1,3]oxazol]-3′-one]",< 25 nM
6,"CC1CC2(CCN1c1ccnc3c(F)cnn13)O[C@@H]1CC[C@@H](c3ccccc3)N1C2=O (stereo partly drawn) [Example 4.225, (4R,5′S,7a′R)-1-(3-fluoropyrazolo[1,5-a]pyrimidin-7-yl)-2-methyl-5′-phenyltetrahydro-3′H-spiro[piperidine-4,2′-pyrrolo[2,1-b] [1,3]oxazol]-3′-one]",31.8 nM
7,"CC1CN(c2cccc3ncnn23)CCC12O[C@@H]1CC[C@@H](c3ccccc3)N1C2=O (stereo partly drawn) [Example 4.243, (4R,5′S,7a′R)-3-methyl-5′-phenyl-1-([1,2,4]triazolo[1,5-a]pyridin-5-yl)tetrahydro-3′H-spiro[piperidine-4,2′-pyrrolo[2,1-b] [1,3]oxazol]-3′-one]",26.3 nM
8,"N#Cc1ccc(N2CCC3(O[C@@H]4CC[C@@H](c5ccccc5)N4C3=O)C(F)C2)n2ncnc12 (stereo partly drawn) [Example 4.257, 5-[(5′S,7a′R)-3-fluoro-3′-oxo-5′-phenyltetrahydro-1H,3′H-spiro[piperidine-4,2′-pyrrolo[2,1-b] [1,3]oxazol]-1-yl][1,2,4]triazolo[1,5-a] pyridine-8-carbonitrile]",< 25 nM

# Now from value to compound:
row,EC50,SMILES
1,< 25 nM,"N#Cc1cc(C(=O)N2CCC3(CC2)O[C@@H]2CC[C@@H](c4ccccc4)N2C3=O)ccc1F [Example 6.138, 2-fluoro-5-[(5′S,7a′R)-3′-oxo-5′-phenyl-tetrahydro-1H,3′H-spiro[piperidine-4,2′-pyrrolo[2,1-b][1,3]-oxazole]-1-carbonyl]-benzonitrile]"
2,26.9 nM,"O=C1N2[C@@H](CC[C@H]2c2ccccc2)OC12CCN(c1cc(OC3CCC3)ccn1)CC2 [Example 11.20, (5′S,7a′R)-1-[4-(cyclobutyloxy)pyridin-2-yl]-5′-phenyltetrahydro-3′H-spiro[piperidine-4,2′-pyrrolo[2,1-b][1,3]oxazol]-3′-one]"
3,< 25 nM,"O=C(c1cc(F)ccc1F)N1CCC2(O[C@@H]3CC[C@@H](c4ccccc4)N3C2=O)C(F)C1 (stereo partly drawn) [Example 6.111, (5′S,7a′R)-1-(2,5-difluorobenzene-1-carbonyl)-3-fluoro-5′-phenyltetrahydro-3′H-spiro[piperidine-4,2′-pyrrolo[2,1-b][1,3]-oxazol]-3′-one]"
4,< 25 nM,"C#Cc1cccc(C(=O)N2CCC3(CC2)O[C@@H]2CC[C@@H](c4cccc(F)c4)N2C3=O)c1 [Example 6.123, (5′S,7a′R)-1-(3-ethynylbenzene-1-carbonyl)-5′-(3-fluoro-phenyl)tetrahydro-3′H-spiro[piperidine-4,2′-pyrrolo[2,1-b][1,3]oxazol]-3-one]"
5,< 25 nM,"O=C(c1ccc2sncc2c1)N1CCC2(CC1)O[C@@H]1CC[C@@H](c3cc(F)cc(F)c3)N1C2=O [Example 6.65, (5′S,7a′R)-1-(1,2-benzothiazole-5-carbonyl)-5′-(3,5-difluorophenyl)tetra-hydro-3′H-spiro [piperidine-4,2′-pyrrolo[2,1-b][1,3]-oxazol]-3′-one]"
6,728 nM,"O=C1N2[C@@H](CC[C@H]2c2cc(F)cc(F)c2)OC12CCN(S(=O)(=O)c1ccccc1)CC2 [Example 8.1, (5′S,7a′R)-5′-(3,5-Difluorophenyl)-1-(phenylsulfonyl)tetrahydro-3′H-spiro[piperidine-4,2′-pyrrolo[2,1-b]oxazol]-3′-one]"
7,43.8 nM,"O=C(c1ccn2ncnc2n1)N1CCC2(CC1)O[C@@H]1CC[C@@H](c3cc(F)cc(F)c3)N1C2=O [Example 6.87, (5′S,7a′R)-5′-(3,5-difluorophenyl)-1-([1,2,4]triazolo[1,5-a]pyrimidine-5-carbonyl)tetrahydro-3′H-spiro[piperidine-4,2′-pyrrolo[2,1-b] [1,3]oxazol]-3′-one]"
8,< 25 nM,"O=C(c1cccc(-c2nnco2)c1)N1CCC2(CC1)O[C@@H]1CC[C@@H](c3cc(F)cc(F)c3)N1C2=O [Example 6.64, (5′S,7a′R)-5′-(3,5-difluorophenyl)-1-[3-(1,3,4-oxadiazol-2-yl)benzene-1-carbon-yl]tetrahydro-3′H-spiro[piperidine-4,2′-pyrrolo[2,1-b][1,3]-oxazol]-3′-one]"
9,56 nM,"O=C1N2[C@@H](CC[C@H]2c2cc(F)cc(F)c2)OC12CCN(c1cncc3ncnn13)CC2 [Example 13.4, (5′S,7a′R)-1-([1,2,4]triazolo[1,5-a]pyrazin-5-yl)-5′-(3,5-difluorophenyl)tetrahydro-3′H-spiro[piperidine-4,2′-pyrrolo[2,1-b]oxazol]-3′-one, TFA salt]"
10,30.5 nM,"O=C(c1ccn2nncc2c1)N1CCC2(CC1)O[C@@H]1CC[C@@H](c3cc(F)cc(F)c3)N1C2=O [Example 6.22, (5′S,7a′R)-5′-(3,5-difluorophenyl)-1-([1,2,3]triazolo[1,5-a]pyridine-5-carbon-yl)tetrahydro-3′H-spiro[piperidine-4,2′-pyrrolo[2,1-b][1,3]oxazol]-3′-one]"
11,< 25 nM,"Cc1ccc(F)c(C(=O)N2CCC3(CC2)O[C@@H]2CC[C@@H](c4cc(F)cc(F)c4)N2C3=O)c1 [Example 6.5, (5′S,7a′R)-5′-(3,5-difluorophenyl)-1-(2-fluoro-5-methyl-benzene-1-carbonyl) tetrahydro-3′H-spiro [piperidine-4,2′-pyrrolo[2,1-b][1,3]oxazol]-3′-one]"
12,38.3 nM,"CCc1ccnc(C(=O)N2CCC3(CC2)O[C@@H]2CC[C@@H](c4cc(F)cc(F)c4)N2C3=O)c1 [Example 6.79, (5′S,7a′R)-5′-(3,5-difluorophenyl)-1-(4-ethylpyridine-2-carbonyl)tetrahydro-3′H-spiro[piperidine-4,2′-pyrrolo[2,1-b][1,3]oxazol]-3′-one]"
13,< 25 nM,"O=C1N2[C@@H](CC[C@H]2c2cc(F)cc(F)c2)OC12CCN(c1cccc3ncnn13)CC2 [Example 13.2, (5′S,7a′R)-1-([1,2,4]triazolo[1,5-a]pyridin-5-yl)-5′-(3,5-difluorophenyl)tetrahydro-3′H-spiro[piperidine-4,2′-pyrrolo[2,1-b]oxazol]-3′-one, TFA salt]"
14,61.1 nM,"O=C1N2[C@@H](CC[C@H]2c2ccccc2)OC12CCN(c1nc(-c3ccccn3)cs1)CC2 [Example 11.4, (5′S,7a′R)-5′-phenyl-1-[4-(pyridin-2-yl)-1,3-thiazol-2-yl]tetrahydro-3′H-spiro[piperidine-4,2′-pyrrolo[2,1-b][1,3]oxazol]-3′-one]"
15,< 25 nM,"O=C1N2[C@@H](CC[C@H]2c2ccccc2)OC12CCN(c1ncc(-c3cnco3)cc1F)CC2 [Example 21.5, (5′S,7a′R)-1-[3-fluoro-5-(1,3-oxazol-5-yl)pyridin-2-yl]-5′-phenyltetrahydro-3′H-spiro[piperidine-4,2′-pyrrolo[2,1-b][1,3]oxazol]-3′-one]"
16,< 25 nM,"CCOc1ccc(N2CCC3(CC2)O[C@@H]2CC[C@@H](c4cc(F)cc(F)c4)N2C3=O)n2nccc12 [Example 19.2, (5′S,7a′R)-5′-(3,5-difluorophenyl)-1-(4-ethoxypyrazolo[1,5-a]pyridin-7-yl)tetrahydro-3′H-spiro[piperidine-4,2′-pyrrolo[2,1-b]oxazol]-3′-one, TFA salt]"
